Pest or weed control, plant injury and Corn plant response rating (crop injury, 0 = no effect, 100 = complete kill) data for 3 compounds are collected here from patent publication US12077503B2, “Substituted cyclic amides and their use as herbicides” (FMC CORPORATION, priority 2015, dated 2024).

Like-named read-outs stand apart in the source and are kept apart here.

Format in all cases: in vivo
In assay [1] the test system is giant foxtail (Setaria faberii). Put plainly: Test A preemergence. Conditions: Setaria faberi, pre-emergence, 240 h; for pest or weed control at 125 g/ha: 125 g ai/ha, 0 to 100 scale where 0 is no effect and 100 is complete control; for pest or weed control at 500 g/ha: 500 g ai/ha. The procedure, abridged:
(§1)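 Seeds sprayed preemergence with a directed soil spray, or plants at 2 to 10 cm height and one- to two-leaf stage sprayed postemergence, with test chemicals in a non-phytotoxic solvent mixture containing surfactant, in loam soil–sand blend. Injury rated visually against untreated controls after about 10 d in greenhouse, 0 (no effect) to 100 (complete control).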

Assay [2] has as its system barnyardgrass (Echinochloa crus-galli). Nature of the assay: Test A preemergence. Conditions: Echinochloa crus-galli, pre-emergence, 240 h; for pest or weed control at 125 g/ha: 125 g ai/ha, 0 to 100 scale where 0 is no effect and 100 is complete control; for pest or weed control at 500 g/ha: 500 g ai/ha. The method, boiled down: as §1
Assay [3] relates to Kochia (Kochia scoparia). Put plainly: Test A preemergence. The conditions noted are these: Bassia scoparia, pre-emergence, 240 h; for pest or weed control at 125 g/ha: 125 g ai/ha, 0 to 100 scale where 0 is no effect and 100 is complete control; for pest or weed control at 500 g/ha: 500 g ai/ha. The method, boiled down: as §1
Assay [4] relates to pigweed (Amaranthus retroflexus). Nature of the assay: Test A preemergence. Conditions: Amaranthus retroflexus, pre-emergence, 240 h; for pest or weed control at 125 g/ha: 125 g ai/ha, 0 to 100 scale where 0 is no effect and 100 is complete control; for pest or weed control at 500 g/ha: 500 g ai/ha.
Assay [5] relates to ragweed (common ragweed, Ambrosia elatior). Put plainly: Test A preemergence. Conditions: Ambrosia artemisiifolia, pre-emergence, 240 h; for pest or weed control at 125 g/ha: 125 g ai/ha, 0 to 100 scale where 0 is no effect and 100 is complete control; for pest or weed control at 500 g/ha: 500 g ai/ha. The procedure, abridged:
as §1

The test system of assay [6] is ryegrass, Italian (Italian ryegrass, Lolium multiflorum). Nature of the assay: Test A preemergence. The conditions noted are these: Lolium multiflorum, pre-emergence, 240 h; for pest or weed control at 125 g/ha: 125 g ai/ha, 0 to 100 scale where 0 is no effect and 100 is complete control; for pest or weed control at 500 g/ha: 500 g ai/ha. The procedure, abridged:
as §1

The subject of assay [7] is giant foxtail (Setaria faberii). Nature of the assay: Test A postemergence. Conditions: Setaria faberi, post-emergence, 240 h, 125 g ai/ha, Postemergence; visual injury after approximately 10 d; 0 to 100 scale where 0 is no effect and 100 is complete control; read-out: Plant response rating, Foxtail, Giant. The procedure, abridged: as §1
Assay [8] has as its system barnyardgrass (Echinochloa crus-galli). Nature of the assay: Test A postemergence. The conditions noted are these: Echinochloa crus-galli, post-emergence, 240 h, 125 g ai/ha, Postemergence; visual injury after approximately 10 d; 0 to 100 scale where 0 is no effect and 100 is complete control; read-out: Plant response rating, Barnyardgrass. The procedure, abridged:
as §1

In assay [9] the test system is Kochia (Kochia scoparia). Nature of the assay: Test A postemergence. The conditions noted are these: Bassia scoparia, post-emergence, 240 h, 125 g ai/ha, Postemergence; visual injury after approximately 10 d; 0 to 100 scale where 0 is no effect and 100 is complete control; read-out: Plant response rating, Kochia. The method, boiled down:
as §1

Assay [10] deals with pigweed (Amaranthus retroflexus). Put plainly: Test A postemergence. Conditions: Amaranthus retroflexus, post-emergence, 240 h, 125 g ai/ha, Postemergence; visual injury after approximately 10 d; 0 to 100 scale where 0 is no effect and 100 is complete control; read-out: Plant response rating, Pigweed. The procedure, abridged:
as §1

Assay [11] deals with wheat (Triticum aestivum). Nature of the assay: Test A postemergence. The conditions noted are these: Triticum aestivum, post-emergence, 240 h, 125 g ai/ha, Postemergence; visual injury after approximately 10 d; 0 to 100 scale where 0 is no effect and 100 is complete control; read-out: Plant response rating, Wheat. The procedure, abridged: as §1
Assay [12] has as its system ragweed (common ragweed, Ambrosia elatior). Nature of the assay: Test A postemergence. The conditions noted are these: Ambrosia artemisiifolia, post-emergence, 240 h, 125 g ai/ha, Postemergence; visual injury after approximately 10 d; 0 to 100 scale where 0 is no effect and 100 is complete control; read-out: Plant response rating, Ragweed. The method, boiled down:
as §1

Assay [13] has as its system Galium (catchweed bedstraw, Galium aparine). Put plainly: Test A postemergence. The conditions noted are these: Galium, post-emergence, 240 h, 125 g ai/ha, Postemergence; visual injury after approximately 10 d; 0 to 100 scale where 0 is no effect and 100 is complete control; read-out: Plant response rating, Galium. The procedure, abridged: as §1
Another assay concerns corn (Zea mays). Nature of the assay: Test A postemergence. Conditions: Zea mays, post-emergence, 240 h, 125 g ai/ha, Postemergence; visual injury after approximately 10 d; 0 to 100 scale where 0 is no effect and 100 is complete control. The method, boiled down: as §1
Assay [14] relates to ryegrass, Italian (Italian ryegrass, Lolium multiflorum). Put plainly: Test A postemergence. The conditions noted are these: Lolium multiflorum, post-emergence, 240 h, 125 g ai/ha, Postemergence; visual injury after approximately 10 d; 0 to 100 scale where 0 is no effect and 100 is complete control; read-out: Plant response rating, Ryegrass, Italian. The method, boiled down: as §1

Where [15] appears, read: preemergence, read-out: Foxtail, Giant plant response rating.
The mark [16] stands for this setting: preemergence, visual injury rating about 10 d after treatment, 0 to 100 scale (0 no effect, 100 complete control), read-out: Foxtail, Giant plant response rating.
[17] abbreviates: preemergence, read-out: Barnyardgrass plant response rating.
[18] abbreviates: preemergence, visual injury rating about 10 d after treatment, 0 to 100 scale (0 no effect, 100 complete control), read-out: Barnyardgrass plant response rating.
Where [19] appears, read: preemergence, read-out: Kochia plant response rating.
[20] abbreviates: preemergence, visual injury rating about 10 d after treatment, 0 to 100 scale (0 no effect, 100 complete control), read-out: Kochia plant response rating.
Where [21] appears, read: preemergence, read-out: Pigweed plant response rating.
The mark [22] stands for this setting: preemergence, visual injury rating about 10 d after treatment, 0 to 100 scale (0 no effect, 100 complete control), read-out: Pigweed plant response rating.
[23] abbreviates: preemergence, read-out: Ragweed plant response rating.
The mark [24] stands for this setting: preemergence, visual injury rating about 10 d after treatment, 0 to 100 scale (0 no effect, 100 complete control), read-out: Ragweed plant response rating.
[25] abbreviates: preemergence, read-out: Ryegrass, Italian plant response rating.
Setting [26] is: preemergence, visual injury rating about 10 d after treatment, 0 to 100 scale (0 no effect, 100 complete control), read-out: Ryegrass, Italian plant response rating.

`Cc1cc([C@H]2CN(C)C(=O)[C@@H]2C(=O)Nc2ccccc2F)ccc1Cl` [Compound 928]: the pest or weed control at 125 g/ha in assay [1] (setting [15]) turned out to be 90%; in assay [2] (setting [17]), 90%; in the assay with Kochia (Kochia scoparia) [3] (setting [19]), 80%; in [4] (setting [21]) it was 0%; in assay [5] (setting [23]), 0%; in [6] (setting [25]), 40%. Further, the pest or weed control at 125 g/ha worked out at 90% in assay [7]; 90% in assay [8]; 40% with Kochia (Kochia scoparia) [9]; 20% in assay [10]; 0% in [12]; 50% in assay [13]. Besides, in [14], the pest or weed control at 125 g/ha came out at 50%. Also, the pest or weed control at 500 g/ha in assay [1] (setting [16]) amounted to 90%; in [2] (setting [18]) it was 90%; in the assay on Kochia (Kochia scoparia) [3] (setting [20]) it was 80%; in assay [4] (setting [22]), 20%; in [5] (setting [24]) it was 0%; in assay [6] (setting [26]), 70%. For the same compound, the plant injury at 125 g/ha in assay [11] stood at 40%. This compound also registered a Corn plant response rating (crop injury, 0 = no effect, 100 = complete kill) at 125 g/ha in the assay on corn (Zea mays) of 40%.

For the compound `CON1CC[C@H](c2ccc(F)cc2)[C@@H](C(=O)Nc2cccc(F)c2F)C1=O` [Compound 918], the pest or weed control at 125 g/ha in assay [1] (setting [15]) was determined as 20%; in [2] (setting [17]) it was 0%; in the assay on Kochia (Kochia scoparia) [3] (setting [19]), 0%; in [4] (setting [21]), 0%; in assay [5] (setting [23]), 0%; in assay [6] (setting [25]), 0%. The pest or weed control at 125 g/ha (in assay [7]; in assay [8]; in the assay with Kochia (Kochia scoparia) [9]; in assay [10]; in [12]; in [13]) was 0% in each case. Moreover, in assay [14], the pest or weed control at 125 g/ha is 0%. The pest or weed control at 500 g/ha in assay [1] (Preemergence, visual injury vs untreated controls after approximately 10 d, read-out: Foxtail, Giant plant response rating (0 to 100 scale where 0 is no effect and 100 is complete control)) came to 70%; in assay [2] (Preemergence, visual injury vs untreated controls after approximately 10 d, read-out: Barnyardgrass plant response rating (0 to 100 scale where 0 is no effect and 100 is complete control)) it was 40%; in the assay with Kochia (Kochia scoparia) [3] (Preemergence, visual injury vs untreated controls after approximately 10 d, read-out: Kochia plant response rating (0 to 100 scale where 0 is no effect and 100 is complete control)), 0%; in assay [4] (Preemergence, visual injury vs untreated controls after approximately 10 d, read-out: Pigweed plant response rating (0 to 100 scale where 0 is no effect and 100 is complete control)), 0%; in assay [5] (Preemergence, visual injury vs untreated controls after approximately 10 d, read-out: Ragweed plant response rating (0 to 100 scale where 0 is no effect and 100 is complete control)) it was 0%; in assay [6] (Preemergence, visual injury vs untreated controls after approximately 10 d, read-out: Ryegrass, Italian plant response rating (0 to 100 scale where 0 is no effect and 100 is complete control)), 0%. The plant injury at 125 g/ha in [11] was 0%. This compound returned a Corn plant response rating (crop injury, 0 = no effect, 100 = complete kill) at 125 g/ha in the assay on corn (Zea mays) of 0%.

With `Cc1cccc(NC(=O)[C@H]2C(=O)N(C)C[C@@H]2c2ccc(C(F)(F)F)cc2)c1C` [Compound 941], the pest or weed control at 125 g/ha in assay [1] (setting [15]) amounted to 90%; in assay [2] (setting [17]), 80%; with Kochia (Kochia scoparia) [3] (setting [19]) it was 0%; in assay [4] (setting [21]), 0%; in [7], 60%; in assay [8], 50%. The pest or weed control at 125 g/ha is 0% with Kochia (Kochia scoparia) [9]; 0% in assay [10]; 0% in [12]; 20% in assay [13]; 0% in [14]. For the same compound, the pest or weed control at 500 g/ha in assay [1] (setting [16]) is 90%; in assay [2] (setting [18]), 90%; with Kochia (Kochia scoparia) [3] (setting [20]), 0%; in [4] (setting [22]) it was 0%; in [5] (setting [24]) it was 30%; in assay [6] (setting [26]), 0%. Moreover, the plant injury at 125 g/ha in [11] turned out to be 0%. Moreover, the Corn plant response rating (crop injury, 0 = no effect, 100 = complete kill) at 125 g/ha with corn (Zea mays) was 0%.
